{"source": "patent US20110152362A1", "about": "“METHODS OF TREATING EPILEPTOGENESIS AND EPILEPSY” (priority 2004, published 2011)", "key": {"[1]": {"assay": "Blood levels in humans, oral administration of Test Compound for 7 days (toxicology studies)", "format": "in vivo, human", "conditions": "for Cmax at 7 days: blood; for Cmax at 7 days / AUC (0-24): human", "excerpt": "In toxicology studies in humans, oral administration of Test Compound at various doses for 7 days produced the following C max's and AUC (0-24): […]"}, "seizures in rats": {"test_system": "seizures in rats", "assay": "ED50 for preventing seizures in rats", "format": "in vivo", "conditions": "Rattus norvegicus, depending on the time and experiment type"}, "[2]": {"test_system": "rats subjected to li-pilo SE", "assay": "Example 2: latency to and frequency of spontaneous seizures (video recording)", "format": "in vivo, rat", "procedure": "The effects of DZP and the 4 doses of TC on epileptogenesis were investigated by daily video recording of the animals for 10 h per day. Video recording was performed for 4 weeks during which the occurrence of the first seizure was noted as well as the total number of seizures over the whole period. Animals were then taken off the video recording system and kept for 4 additional weeks in our animal facilities before they were sacrificed after a total period of 8 weeks of epilepsy."}, "[3]": {"test_system": "rats subjected to Li-pilo induced SE", "assay": "Example 1: quantification of cell densities in hippocampus, thalamus and cortex after Li-pilo SE", "format": "in vivo, rat", "procedure": "The effects of increasing doses of the Test Compound were studied on 3 groups of rats. The animals of the first group received 10 mg/kg of the test compound, i.p., 1 h after the onset of SE (pilo-TC10) while the animals of groups 2 and 3 received 30 and 60 mg/kg of the Test Compound (pilo-TC30 and pilo-TC60), respectively.\nThe control group received saline instead of pilocarpine and the Test Compound (saline-saline). […] Pilo-DZP received a second injection of 1 mg/kg DZP on the day of SE at about 10 h after the first one. Thereafter, Pilo-DZP and saline-saline rats received twice daily an equivalent volume of saline.\nQuantification of cell densities was performed at 6 days after SE on 8 pilo-DZP, 8 pilo-TC10, 7 pilo-TC30, 7 pilo-TC60, and 6 saline-saline rats. […] Counts involved only cells larger than 10 μm, smaller ones being considered as glial cells.\nFor the comparison of the characteristics of SE in pilo-saline and pilo-test compound animals, a non-paired Student's t-test was used. The comparison between the number of rats seizing in both groups was performed by means of a Chi square test. For neuronal damage, statistical analysis between groups was performed using ANOVA followed by a Fisher's test for multiple comparisons using the Statview software (Fisher R A, 1946a, Statistical Methods for Research Workers (10th edition) Oliver & Boyd, Edinburgh; Fisher R A, 1946b, The Design of Experiments (4th edition) Oliver & Boyd, Edinburgh)"}, "[4]": {"test_system": "rats subjected to li-pilo SE", "assay": "Example 2: mortality over the first 48 h after Li-pilo SE", "format": "in vivo, rat", "set-up": "concentration or dose not given beside the values"}, "[5]": {"assay": "Example 3 study 2: repeated oral dose (q12h, 1 wk) pharmacokinetics in healthy men", "format": "in vivo, human", "procedure": "Two single-center, placebo-controlled, double-blind, ascending-dose studies were conducted in healthy men ≧18 and ≦45 yrs. In study 1 (N=70), subjects were randomly assigned to a single dose of Test Compound (TC) or placebo. Escalated doses were received as 100, 250, 400, 750, 1000, 1250, and 1500 mg. PK parameters were estimated from plasma and urine samples collected up to 3 days post dose. Study 2 (N=53) evaluated the PK of repeated doses of Test Compound (TC) in 4 dose groups (100, 250, 500, or 750 mg). Within each group, 12 subjects were assigned to q12h treatment with drug or placebo for 1 wk and were crossed over after a 14-day washout period. PK parameters were estimated from plasma and urine samples on days 1 and 7."}, "[6]": {"conditions": "repeated doses q12h, 100-750 mg"}}}
{"molecule": "NC(=O)OC[C@@H](O)c1ccccc1Cl", "note": "[TC]", "values": [{"measurement": "tolerability in humans", "setting": "[1]; 750 mg twice a day (1500 mg/day)", "result": "easily tolerated"}, {"measurement": "Cmax at 7 days", "setting": "[1]; oral 100 mg b.i.d. for 7 days", "result": 3600, "unit": "ng/mL"}, {"measurement": "Cmax at 7 days", "setting": "[1]; oral 250 mg b.i.d. for 7 days", "result": 8200, "unit": "ng/mL"}, {"measurement": "Cmax at 7 days", "setting": "[1]; oral 500 mg b.i.d. for 7 days", "result": 17200, "unit": "ng/mL"}, {"measurement": "Cmax at 7 days", "setting": "[1]; oral 750 mg b.i.d. for 7 days", "result": 28200, "unit": "ng/mL"}, {"measurement": "AUC (0-24)", "setting": "[1]; oral 100 mg b.i.d. for 7 days", "result": 42.2, "unit": "micrograms-hour/mL"}, {"measurement": "AUC (0-24)", "setting": "[1]; oral 250 mg b.i.d. for 7 days", "result": 102.3, "unit": "micrograms-hour/mL"}, {"measurement": "AUC (0-24)", "setting": "[1]; oral 500 mg b.i.d. for 7 days", "result": 204.1, "unit": "micrograms-hour/mL"}, {"measurement": "AUC (0-24)", "setting": "[1]; oral 750 mg b.i.d. for 7 days", "result": 322.7, "unit": "micrograms-hour/mL"}, {"measurement": "ED50", "setting": "seizures in rats", "result": "4 to 30", "unit": "mg/kg"}, {"measurement": "effect on the latency to the first spontaneous seizure", "setting": "[2]; 30 mg/kg", "result": "did not affect the latency to the first spontaneous seizure"}, {"measurement": "latency of long latency subgroup relative to short latency", "setting": "[2]; 3 higher doses (60, 90, 120 mg/kg)", "result": "4-6 times longer"}, {"measurement": "frequency of spontaneous seizures over four weeks of recording", "setting": "[2]; TC60, 90 and 120 groups vs DZP and TC30 groups", "result": "lower"}, {"measurement": "percentage of rats with short latencies to seizures", "setting": "[2]; at 30 mg/kg (so in the source), short latency = shorter than 40 days after SE", "result": 70, "unit": "%"}, {"measurement": "percentage of rats with short latencies to seizures", "setting": "[2]; at 90 mg/kg", "result": 36, "unit": "%"}, {"measurement": "percentage of rats with short latencies to seizures", "setting": "[2]; at 120 mg/kg", "result": 11, "unit": "%"}, {"measurement": "percentage of non-epileptic rats (no seizure over 150 days post-SE)", "setting": "[2]; at both highest doses, 90 and 120 mg/kg", "result": 45, "unit": "%"}, {"measurement": "Latency to the first spontaneous seizure", "setting": "[2]; pilo-TC30, 30 mg/kg", "result": "11.6 ± 2.5", "unit": "days"}, {"measurement": "Latency to the first spontaneous seizure", "setting": "[2]; pilo-TC60, Long latency subgroup", "result": "76.7 ± 15.6**°° days"}, {"measurement": "Latency to the first spontaneous seizure", "setting": "[2]; pilo-TC60, Short latency subgroup", "result": "17.4 ± 5.4", "unit": "days"}, {"measurement": "Latency to the first spontaneous seizure", "setting": "[2]; pilo-TC90, Long latency subgroup", "result": "52.0 ± 1.0*° days"}, {"measurement": "Latency to the first spontaneous seizure", "setting": "[2]; pilo-TC90, Non epileptic subgroup (no seizure over 150 days post-SE)", "result": "150**°° days"}, {"measurement": "Latency to the first spontaneous seizure", "setting": "[2]; pilo-TC90, Short latency subgroup", "result": "14.8 ± 5.7", "unit": "days"}, {"measurement": "Latency to the first spontaneous seizure", "setting": "[2]; pilo-TC120, Long latency subgroup", "result": "84.5 ± 16.7**°° days"}, {"measurement": "Latency to the first spontaneous seizure", "setting": "[2]; pilo-TC120, Non epileptic subgroup (no seizure over 150 days post-SE)", "result": "150**°° days"}, {"measurement": "Latency to the first spontaneous seizure", "setting": "[2]; pilo-TC120, Short latency subgroup", "result": 13.0, "unit": "days"}, {"measurement": "protective effects at lowest dose tested in Example 1", "setting": "[3]; 10 mg/kg/day", "result": "minimal or no protective effects"}, {"measurement": "protection in CA3b", "setting": "[3]; 60 mg/kg", "result": "significantly neuroprotective"}, {"measurement": "reduction of neuronal damage, lateral thalamic nucleus", "setting": "[3]; 60 mg/kg dose", "result": 65, "unit": "%"}, {"measurement": "reduction of neuronal damage, mediodorsal thalamic nucleus", "setting": "[3]; 60 mg/kg dose", "result": 42, "unit": "%"}, {"measurement": "neuroprotection compared to pilo-DZP rats, ventral entorhinal cortex layers III-IV", "setting": "[3]; TC60 administration", "result": 31, "unit": "%"}, {"measurement": "reduction of neuronal damage recorded in pilo-DZP rats, piriform cortex layer II", "setting": "[3]; TC60 treatment", "result": 41, "unit": "%"}, {"measurement": "reduction of neuronal damage recorded in pilo-DZP rats, piriform cortex layers III-IV", "setting": "[3]; TC60 treatment", "result": 44, "unit": "%"}, {"measurement": "worsening of cell loss compared with pilo-DZP rats, dorsal entorhinal cortex layers III-IV", "setting": "[3]; pilo-TC10 rats", "result": 28, "unit": "% more damage"}, {"measurement": "worsening of cell loss compared with pilo-DZP rats, ventral entorhinal cortex layers III-IV", "setting": "[3]; pilo-TC10 rats", "result": 35, "unit": "% more damage"}, {"measurement": "cell loss, CA1 pyramidal layer", "setting": "[3]; pilo-TC30 animals", "result": 35, "unit": "%"}, {"measurement": "cell loss, CA1 pyramidal layer", "setting": "[3]; pilo-TC60 animals", "result": 16, "unit": "%"}, {"measurement": "cell loss in the hilus of dentate gyrus", "setting": "[3]; pilo-test compound animals (10, 30, 60 mg/kg)", "result": "69-72%"}, {"measurement": "protection in the CA3a area", "setting": "[3]; test compound 10, 30, 60 mg/kg", "result": "did not afford any protection"}, {"measurement": "mortality over the first 48 h after SE", "setting": "[4]; TC30, group for cell counting at 14 days", "result": 33, "unit": "%"}, {"measurement": "mortality over the first 48 h after SE", "setting": "[4]; TC30, group for latency to SRS and late cell counting", "result": 27, "unit": "%"}, {"measurement": "mortality over the first 48 h after SE", "setting": "[4]; TC60, group for cell counting at 14 days", "result": 8, "unit": "%"}, {"measurement": "mortality over the first 48 h after SE", "setting": "[4]; TC60, group for latency to SRS and late cell counting", "result": 0, "unit": "%"}, {"measurement": "mortality over the first 48 h after SE", "setting": "[4]; TC90, group for cell counting at 14 days", "result": 0, "unit": "%"}, {"measurement": "mortality over the first 48 h after SE", "setting": "[4]; TC90, group for latency to SRS and late cell counting", "result": 0, "unit": "%"}, {"measurement": "mortality over the first 48 h after SE", "setting": "[4]; TC120, group for cell counting at 14 days", "result": 33, "unit": "%"}, {"measurement": "mortality over the first 48 h after SE", "setting": "[4]; TC120, group for latency to SRS and late cell counting", "result": 0, "unit": "%"}, {"measurement": "Mean CLR relative to mean oral clearance", "setting": "[5]; healthy men", "result": "< 5 % of the mean oral clearance"}, {"measurement": "Tmax at 1 wk", "setting": "[5]; male, human, plasma, oral, repeated doses q12h, 100-750 mg", "result": "1.3 to 1.8", "unit": "h"}, {"measurement": "half-life at 1 wk", "setting": "[5]; male, human, plasma, oral, repeated doses q12h, 100-750 mg, read-out: mean t1/2 at steady state", "result": "11.9 to 12.8", "unit": "h"}, {"measurement": "accumulation: Cmax and AUC0-12 on day 7 vs. day 1", "setting": "[5]; q12h administration, listed as Test Compound", "result": "about two-fold"}, {"measurement": "Steady-state Cmax and AUC0-12 dose dependence", "setting": "[5]; repeated doses 100-750 mg", "result": "increased in proportion to the dose"}, {"measurement": "mean CL/F at steady state", "setting": "[5]; [6]", "result": "3.40 to 3.78", "unit": "L/h"}, {"measurement": "time for plasma concentrations to reach steady state", "setting": "[5]; [6]", "result": "3 to 4", "unit": "days"}, {"measurement": "linearity of PK", "setting": "[5]; single (100-1500 mg) and repeated (100-750 mg bid) doses, healthy adult men", "result": "linear"}]}
